Biological target: T1, CHRM4 (Homo sapiens, UniProt P08173)
T1 construct: purchased Promega (in-house HiBiT-GPCR construct library, NanoBRET)
T1 sequence (P08173 1-479): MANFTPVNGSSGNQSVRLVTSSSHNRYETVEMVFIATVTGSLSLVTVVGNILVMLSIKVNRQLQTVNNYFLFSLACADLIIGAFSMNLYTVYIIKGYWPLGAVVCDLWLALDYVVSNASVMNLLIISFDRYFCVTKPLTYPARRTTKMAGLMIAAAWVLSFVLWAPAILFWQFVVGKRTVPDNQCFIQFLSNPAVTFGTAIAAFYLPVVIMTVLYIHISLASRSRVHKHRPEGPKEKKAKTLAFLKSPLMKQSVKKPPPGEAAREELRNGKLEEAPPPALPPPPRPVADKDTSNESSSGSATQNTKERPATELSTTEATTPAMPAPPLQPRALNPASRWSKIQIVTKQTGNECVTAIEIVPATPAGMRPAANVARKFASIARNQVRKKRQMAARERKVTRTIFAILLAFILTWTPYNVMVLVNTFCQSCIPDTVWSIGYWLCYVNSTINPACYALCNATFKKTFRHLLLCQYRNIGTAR
Assay: NanoBRET screen HiBiT-CHRM4 in HEK293
Type: binding
Method: Each tracer candidate was screened across the entire library of HiBiT-GPCR constructs using NanoBRET as the detection modality. As depicted in Figure 4A, the specificity of interactions was evaluated through decrease in BRET due to competitive displacement of a bound tracer by excess parental compound. Each tracer was analyzed for binding to each HiBiT-GPCR fusion in the absence and in the presence of competing parental compound. Briefly, HEK293 cells were transfected with HiBiT-GPCR constructs diluted into promoterless DNA to reduce expression and maximize translocation to the cell surface. Each tracer candidate was then screened at concentrations of 1 μM and 0.1 μM across cells expressing these fusions. Cells were treated for 1.5 h with tracer either alone or in the presence of 20 μM competing parental compound (i.e., control). BRET was measured upon addition of purified LgBiT and subsequent complementation with HiBiT genetically fused to a GPCR. The specificity of interactions was assessed through a decrease in BRET signal due to competitive displacement of the bound tracer. To further gauge the robustness of these interactions, the fold response over the control (i.e., BRETtracer/BRETcontrol) was calculated. We chose a 1.5-fold response, which translates to ≥7-fold signal over noise as the minimal threshold required to score an interaction as positive.
HiBiT-GPCR DNA constructs were diluted in 10 mM Tris pH 8 to a final concentration of 0.01 μg/μL, arrayed in 96-well plates and stored at −20 °C. For transfection, HEK293 cells were suspended in Opti-MEM (without phenol red) supplemented with 2% fetal bovine serum (Seradigm) and 100 units/mL penicillin–streptomycin (Gibco) at a final concentration of 220,000 cells/mL and dispensed into white 96-well plates at 90 μL/well. Subsequent transfections and screens were carried using an Agilent Bravo Automated Liquid Handling Platform. First, the 96-well HiBiT DNA arrays were diluted 25-fold in Opti-MEM (without serum or phenol red) to a final concentration of 0.0004 μg/μL and 20 μL of the diluted DNAs were transferred into new 96-well plates. Next, promoterless carrier DNA (1 μg/μL) was diluted 25-fold (0.04 μg/μL) and then dispensed into the diluted arrays at 20 μL/well. Following brief mixing, Viafect transfection reagent (Promega) diluted 16-fold into Opti-MEM was dispensed into the plates at 40 μL/well. After mixing by pipetting, plates were incubated for 10 min on the pipetting station deck. The DNA-transfection reagent complexes were then added to plates containing cells. To facilitate the screen, 10 μL of DNA-transfection reagent complexes were added in duplicates to the top 4 and bottom 4 rows, resulting in two identical 48-well arrays per plate. Plates with transfected cells were incubated for 18–20 h at 37 °C/5% CO2. A screen of each tracer across the entire library using two different concentrations requires duplicate plates of transfected cells. Depending on the number of tracers being screened, transfections can be scaled up using the same ratios. The next day, for each tracer, four 20× screening solutions in tracer dilution buffer (Promega) were prepared: two duplicates at final concentration of 20 μM and two duplicates at a final concentration of 2 μM. […] The four resulting solutions were diluted 4-fold in Opti-MEM without serum or phenol red to generate 5× solutions (5 µM and 0.5 µM tracer +/− 100 μM competing compound). To screen the library, a BioTek MultiFlo FX liquid dispenser was used to dispense 22.5 µL of tracer solution to the top 4 rows and 22.5 µL tracer + competing compound solution to the 4 bottom rows. Plates were briefly mixed on an orbital shaker and incubated for 1.5 h at room temperature. […] Plates were briefly mixed on an orbital shaker and incubated for 15 min to allow complementation.

Row | Compound | NanoBRET Fold Response (CHRM4, tracer 0.1μM) | NanoBRET Fold Response (CHRM4, tracer 1μM) | other results
1 | O=C(CCc1ccc2n1[B-](F)(F)[N+]1=C(c3ccc[nH]3)C=CC1=C2)NCc1ccc(C(=O)NCCOCCC(=O)N[C@@H]2CC[C@@]3(O)[C@H]4Cc5ccc(O)c6c5[C@@]3(CCN4CC3CC3)[C@H]2O6)cc1 [Naltrexone-3-NB590] | 0.66 | 0.79 | –
2 | CCCn1c(=O)c2[nH]c(-c3ccc(OCC(=O)NCCNC(=O)CCOCCNC(=O)c4ccc(CNC(=O)CCc5ccc6n5[B-](F)(F)[N+]5=C(c7ccc[nH]7)C=CC5=C6)cc4)cc3)nc2n(CCC)c1=O [XAC-3-NB590] | 0.78 | 1.10 | –
3 | CC(C)N(CC[C@H](c1ccccc1)c1cc(CCNC(=O)c2ccc(CNC(=O)CCc3ccc4n3[B-](F)(F)[N+]3=C(c5ccc[nH]5)C=CC3=C4)cc2)ccc1O)C(C)C [Tolterodine-BZ-NB590] | 3.69 | 2.39 | –
4 | COc1ccc2[nH]c(-c3ccc(CNC(=O)CCOCCOCCOCCOCCNC(=O)CCc4ccc5n4[B-](F)(F)[N+]4=C(c6ccc[nH]6)C=CC4=C5)cc3)c(CCNC(C)=O)c2n1 [AzomelatoninICO9-2-NB590] | – | – | NanoBRET Fold Response (0.1μM tracer): 0.77; NanoBRET Fold Response (1μM tracer): 0.98
5 | CN1CCN(C2=Nc3cc(Cl)ccc3N(CC(=O)NCCOCCOCCOCCOCCNC(=O)CCc3ccc4n3[B-](F)(F)[N+]3=C(c5ccc[nH]5)C=CC3=C4)c3ccccc32)CC1 [Clozapine-c-2-NB590] | – | – | NanoBRET Fold Response (CHRM4, 0.1μM tracer): 0.97; NanoBRET Fold Response (CHRM4, 1μM tracer): 0.98
6 | COc1ccccc1N1CCN(CCCCN2C(=O)c3ccc(CNC(=O)CCOCCNC(=O)c4ccc(CNC(=O)CCc5ccc6n5[B-](F)(F)[N+]5=C(c7ccc[nH]7)C=CC5=C6)cc4)cc3C2=O)CC1 [NAN-190-3-NB590] | 1.30 | 0.66 | –
7 | Cc1nc2n(c(=O)c1CCN1CCC(c3noc4cc(F)ccc34)CC1)CCCC2OC(=O)NCCOCCOCCOCCOCCNC(=O)CCc1ccc2n1[B-](F)(F)[N+]1=C(c3ccc[nH]3)C=CC1=C2 (stereo not shown) [Risperidone-2-NB590] | 1.10 | 1.67 | –
8 | O=C(CCOCCOCCOCCOCCNC(=O)CCc1ccc2n1[B-](F)(F)[N+]1=C(c3ccc[nH]3)C=CC1=C2)NCCCN1CCN(C2=Nc3ccccc3Oc3ccc(Cl)cc32)CC1 [Loxapine-a-2-NB590] | 1.11 | 1.18 | –
9 | COc1ccccc1N1CCN(CCCCN2C(=O)c3ccc(CNC(=O)CCOCCOCCOCCOCCNC(=O)CCc4ccc5n4[B-](F)(F)[N+]4=C(c6ccc[nH]6)C=CC4=C5)cc3C2=O)CC1 [NAN-190-2-NB590] | 1.18 | 1.17 | –
10 | CC(C)N(CC[C@H](c1ccccc1)c1cc(CCNC(=O)CCOCCOCCOCCOCCNC(=O)CCc2ccc3n2[B-](F)(F)[N+]2=C(c4ccc[nH]4)C=CC2=C3)ccc1O)C(C)C [Tolterodine-2-NB590] | 2.75 | 1.53 | –
11 | N#CN=C(NCCCOc1cccc(CN2CCCCC2)c1)NCCNC(=O)CCOCCOCCOCCOCCNC(=O)CCc1ccc2n1[B-](F)(F)[N+]1=C(c3ccc[nH]3)C=CC1=C2 [Aminopotentidine-2-NB590] | 1.17 | 1.39 | –
12 | CCOC(=O)c1cc(C#N)c(N2CCC(C(=O)NS(=O)(=O)Cc3ccccc3/C=C/C(=O)NCCNC(=O)CCc3ccc4n3[B-](F)(F)[N+]3=C(c5ccc[nH]5)C=CC3=C4)CC2)nc1C [AZD1283-1-NB590] | – | – | NanoBRET Fold Response (CHRM4, 0.1μM): 0.97; NanoBRET Fold Response (CHRM4, 1μM): 1.06
13 | CN(C)CCC=C1c2ccccc2CCc2ccc(C(=O)NCCNC(=O)CCOCCOCCOCCOCCNC(=O)CCc3ccc4n3[B-](F)(F)[N+]3=C(c5ccc[nH]5)C=CC3=C4)cc21 [Amitriptyline-b-2-NB590] | – | – | NanoBRET Fold Response (tracer at 0.1μM, listed as amitriptyline-b-2-NB590): 3.79; NanoBRET Fold Response (tracer at 1μM, listed as amitriptyline-b-2-NB590): 1.75
14 | CN(C)CCC=C1c2ccccc2CCc2ccc(C(=O)NCCNC(=O)CCOCCOCCOCCOCCNC(=O)CCc3ccc4n3[B-](F)(F)[N+]3=C(c5ccc[nH]5)C=CC3=C4)cc21 [Amitriptyline-a-2-NB590] | – | – | NanoBRET Fold Response (tracer at 1μM): 1.45
15 | O=C(CCc1ccc2n1[B-](F)(F)[N+]1=C(c3ccc[nH]3)C=CC1=C2)NCCOCCOCCNC(=O)OCCOCCN1CCN(C2=Nc3ccccc3Sc3ccccc32)CC1 [Quetiapine-a-2-NB590] | 1.65 | 2.06 | –
16 | Cc1cc2c(s1)Nc1ccccc1N=C2N1CCN(CCCNC(=O)CCOCCOCCOCCOCCNC(=O)CCc2ccc3n2[B-](F)(F)[N+]2=C(c4ccc[nH]4)C=CC2=C3)CC1 [Olanzapine-a-2-NB590] | 1.07 | 1.23 | –
17 | CN1CCN(C2=Nc3cc(Cl)ccc3Nc3ccc(CNC(=O)CCOCCOCCOCCOCCNC(=O)CCc4ccc5n4[B-](F)(F)[N+]4=C(c6ccc[nH]6)C=CC4=C5)cc32)CC1 [Clozapine-b-2-NB590] | – | – | NanoBRET Fold Response (CHRM4, 0.1μM tracer): 1.48; NanoBRET Fold Response (CHRM4, 1μM tracer): 2.78
18 | COc1ccc2c(n1)c(CCNC(C)=O)cn2CCNC(=O)CCc1ccc2n1[B-](F)(F)[N+]1=C(c3ccc[nH]3)C=CC1=C2 [Azamelatonin-1-NB590] | – | – | NanoBRET Fold Response (0.1μM tracer): 0.74; NanoBRET Fold Response (1μM tracer): 0.98
19 | CN(CCC=C1c2ccccc2CCc2ccccc21)C(=O)CCOCCOCCOCCOCCNC(=O)CCc1ccc2n1[B-](F)(F)[N+]1=C(c3ccc[nH]3)C=CC1=C2 [Amitriptyline-e-2-NB590] | – | – | NanoBRET Fold Response (tracer at 1μM): 1.25
20 | O=C(CCc1ccc2n1[B-](F)(F)[N+]1=C(c3ccc[nH]3)C=CC1=C2)NCc1ccc(C(=O)NCCOCCOCCNCC(O)COc2cccc3ccccc23)cc1 (stereo not shown) [Propranolol-3-NB590] | – | – | NanoBRET Fold Response (CHRM4, 0.1μM): 0.96; NanoBRET Fold Response (CHRM4, 1μM): 1.05
21 | O=C(CCOCCOCCOCCOCCNC(=O)CCc1ccc2n1[B-](F)(F)[N+]1=C(c3ccc[nH]3)C=CC1=C2)NCCCN1CCN(C2=Nc3cc(Cl)ccc3Nc3ccccc32)CC1 [Clozapine-a-2-NB590] | – | – | NanoBRET Fold Response (CHRM4, 0.1μM tracer): 1.55; NanoBRET Fold Response (CHRM4, 1μM tracer): 1.90

From PMC8151276, “An Integrated Approach toward NanoBRET Tracers for Analysis of GPCR Ligand Engagement” (Molecules, 2021)
